Test results taken from US6602896B1, “p38MAPK inhibitor and uses thereof” (The Board of Trustees of the University of Arkansas, priority 1999, dated 2003).

Legend:
LDL receptor expression [1] = assay: Northern blotting of LDL receptor mRNA in HepG2 cells; assay type: cell-based, human; conditions: HepG2 cells; for effect on SB202190-induced LDL receptor expression: inhibitor added 30 min before SB202190 (2.5 μM, 4 h); for induction of LDL receptor expression (Northern blotting): inhibitor alone, 0.5% FBS
Method: 5×10^5 cells were plated on day 0. On day 2, cells were refed with fresh medium. On day. 4, cells were either left untreated (0) or treated for the indicated times with SB202190 (2.5 μM) in medium containing 0.5% FBS. Total RNA was isolated and subjected to Northern blotting to determine amounts of LDL receptor, squalene synthase (SS) genes, and actin mRNAs. Autoradiographs were quantitated densitometrically. LDL receptor mRNA levels were normalized to actin mRNA levels. In the bottom panel, results are expressed as the fold induction by SB 202190 as compared with uninduced cells (set at 1). Values obtained are the averages of three separate experiments, with the standard deviations shown.
HepG2 cells were grown as described in FIG. 1. On day 4, medium was changed to either 10% LPDS alone or 10% LPDS supplemented with 25-hydroxycholesterol (2 μg/ml) and cholesterol (10 μg/ml), and after 2 hours, cells were treated with indicated concentrations of SB202190 for an additional 4 hours. Levels of LDL receptor and SS mRNAs were determined by Northern analysis and densitometry as described previously. RNA levels were normalized by comparison with levels of actin. Values obtained from cells cultured in the absence of sterols and SB202190 were set at 1. Values shown are the average of two different experiments.
Total RNA was subjected to Northern blot analysis, and the filter was hybridized with a ^32P-labeled LDL receptor probe. Values shown are the averages of two different experiments. […] Values obtained from the control cells grown in the absence of SB202190 or PD98059 were arbitrarily set at 1.
HepG2 cells were grown as described in FIG. 1. On day 4, cells cultured for 1 h in 0.5% FBS containing different amounts of cycloheximide (1 μg/ml, 2 μg/ml, and 5 μg/ml) were then incubated with SB202190 (2.5 μM) for an additional 4 h. LDL receptor and actin mRNA levels were analyzed by Northern blotting of total RNA. Values obtained from cells with no additions were arbitrarily set at 1. […] Results shown are representative of one experiment.
In FIG. 8A, HepG2 cells were pretreated for 30 minutes with the indicated concentration of the above inhibitors and then treated with […] SB202190 for an additional 4 hours. Total RNA was subjected to Northern blotting for measurement of LDL receptor mRNA levels.
(§1) Human hepatoma cell line HepG2 and its derivative HepG2-ΔRaf-1:ER cell line that stably expresses the ΔRaf-1:ER chimera were maintained as monolayer cultures in a humidified 5% CO2 atmosphere at 37° C. in Eagle's minimum essential medium (EMEM) (Bio Whittaker, Md.) supplemented with 10% fetal bovine serum (FBS) (Life Technologies Inc.), 2 mM L-glutamine, 20 units/ml penicillin and 20 μg/ml streptomycin sulphate.
Total RNA was isolated using TRIzol, and Northern blotting was done essentially as described earlier (43, 44). Briefly, 20 μg total cellular RNA was fractionated on 1% formaldehyde agarose gel and transferred to Zeta Probe membrane by capillary blotting. RNA blots were hybridized with LDL receptor and squalene synthase specific single-stranded M13 probes labeled with [α-^32P ]dCTP. Hybridized filters were washed and exposed to Kodak X-ray film. The relative intensities of specific bands were determined densitometrically within the linear range of the film on a model 300A laser densitometer (Molecular Dyanamics, Calif.) with Image Quant software. LDL receptor mRNA was normalized to squalene synthase (SS) (included in this study) or to α-actin (data not shown) mRNA level, and data for each point were plotted as the percentage of LDL receptor mRNA as compared to controls. […]

p42/44^MAPK [2] = assay: p42/44MAPK activation in HepG2-ΔRaf-1:ER cells; assay type: cell-based, human; conditions: 1 μM ICI 182,780
Method: (§2) Cells were either left untreated or stimulated with 1 μM ICI 182,780 for 1.5 h, and then treated with either anisomycin (50 ng/ml) or IL-1β(5 ng/ml) for 30 min. Cells were then lysed in SDS sample buffer, and equal amounts of whole cell lysates were separated by SDS-PAGE in 10% gels. Activated MAPKs levels were analyzed by blotting using anti-phospho-p42/44^MAPK, and anti-phospho-p38^MAPK. Protein levels were analyzed by using phosphorylation-independent anti-p42/44^MAPK following electrotransfer of total proteins onto nitrocellulose. Similar results were obtained in three separate experiments. […]
(§3) Proteins were fractionated by SDS-PAGE with an 10% acrylamide separation gel, and the separated proteins were transferred to nitrocellulose, and processed as described previously (43, 44). […] After further washing in Tris/NaCl/Tween-20, membranes were incubated for 1 h with horseradish peroxidase-linked anti-IgG secondary antibody (Bio-Rad, diluted 1:5000), and immunoreactive proteins were detected by ECL as described by the supplier. Quantitative analyses of protein levels were performed by densitometric scanning of the autoradiograms, and are representative of 3 or more independent experiments.
(§4) Whether inhibition or activation of p42/44^MAPK regulates p38^MAPK activation by stress-inducers was determined next. […]

p38^MAPK [3] = assay: p38MAPK activation by stress-inducers in HepG2-ΔRaf-1:ER cells; assay type: cell-based, human; conditions: 1 μM ICI 182,780 1.5 h, then anisomycin (50 ng/ml) or IL-1β (5 ng/ml) 30 min
Method: as §2, §3, §4

p42/44^MAPK [4] = assay: Immunoblot of phospho-p42/44MAPK in HepG2 cells; assay type: cell-based, human; conditions: inhibitor added 30 min before SB202190 (2.5 μM, 4 h)
Method: (§5) 2×10^5 cells were grown and treated as described in FIG. 1. After the indicated times, equal amounts of cell lysates were blotted with anti-phospho-p42/44^MAPK antibody, phosphorylation-independent p42/44^MAPK antibody, anti-phospho p46/54^JNK antibody, anti-phospho-MEK-1/2, or phosphorylation-independent MKP-1.
HepG2 cells were cultured in the absence or presence of 1 μM staurosporine or 5 μM PD98059 for 30 min. SB202190 (2.5 μM) was then added to the cells for 4 h, cell lysate was subjected to immunoblotting to measure the phosphorylation levels of p42/44^MAPK and MEK-1/2.
as §1
Proteins were fractionated by SDS-PAGE with an 10% acrylamide separation gel, and the separated proteins were transferred to nitrocellulose, and processed as described previously (43, 44). Briefly, membranes were incubated in 20 mM Tris-HCl, pH 7.6, 137 mM NaCl, 0.2% v/v Tween-20 (Tris/NaCl/Tween-20) with 5% w/v non-fat dried milk for 1 h, washed in Tris/NaCl/Tween-20 (3×5 min), and incubated for 1 h with primary antibody in Tris/NaCl/Tween-20 containing 1% milk at room temperature for non phospho-specific antibodies and overnight at 4° C. for phospho-specific antibodies. The following dilutions were used for individual antibodies against different proteins: p42/44^MAPK (1:1600); phosphop-42/44^MAPK (1:1000); phosphop-46/54^JNK (1:1000); phospho-p38^MAPK (1:1600); phospho-MEK-1/2 (1:1000); MKP-1 (1:1500). After further washing in Tris/NaCl/Tween-20, membranes were incubated for 1 h with horseradish peroxidase-linked anti-IgG secondary antibody (Bio-Rad, diluted 1:5000), and immunoreactive proteins were detected by ECL as described by the supplier. Quantitative analyses of protein levels were performed by densitometric scanning of the autoradiograms, and are representative of 3 or more independent experiments.
HepG2 cells were incubated with SB202190, and the activity of p42/44^MAPK and p46/54^JNK was determined by immunoblot analysis with antibodies that recognized the activated phosphorylated forms of these kinases in cell extracts obtained at different times.

p38^MAPK [5] = conditions: concentrations that completely blocked p42/44MAPK activation by MEK-1/2; cited from earlier work
other MAPKs = assay: Activity of other MAPKs on inhibition of p42/44MAPK; assay type: cell-based; conditions: inhibition of p42/44MAPK with PD98059; data not shown
LDL receptor expression [6] = assay: Northern blotting of LDL receptor mRNA in HeLa cells; assay type: cell-based; conditions: PD98059 (5 μM) added 30 min before SB202190 (2.5 μM) 4 h
Method: PD98059 was added 30 min prior to addition of SB202190. After the indicated times, total RNA was isolated and subjected to Northern blotting. […] Total RNA was isolated using TRIzol, and Northern blotting was done essentially as described earlier (43, 44). Briefly, 20 μg total cellular RNA was fractionated on 1% formaldehyde agarose gel and transferred to Zeta Probe membrane by capillary blotting. RNA blots were hybridized with LDL receptor and squalene synthase specific single-stranded M13 probes labeled with [α-^32P ]dCTP. Hybridized filters were washed and exposed to Kodak X-ray film. The relative intensities of specific bands were determined densitometrically within the linear range of the film on a model 300A laser densitometer (Molecular […], Calif.) with Image Quant software. LDL receptor mRNA was normalized to squalene synthase (SS) (included in this study) or to α-actin (data not shown) mRNA level, and data for each point were plotted as the percentage of LDL receptor mRNA as compared to controls.

[7] = test system: p38^MAPK α- and β-isoforms; conditions: cited from earlier work
MEK-1/2 = assay: Immunoblot of phospho-MEK-1/2 in HepG2 cells; assay type: cell-based, human; conditions: 1 μM staurosporine 30 min, then SB202190 (2.5 μM) 4 h
Method: as §5
HepG2 cells were cultured in the absence or presence of 1 μM staurosporine or 5 μM PD98059 for 30 min. SB202190 (2.5 μM) was then added to the cells for 4 h, cell lysate was subjected to immunoblotting to measure the phosphorylation levels of p42/44^MAPK and MEK-1/2. […]
as §3

## CN(C)CCCn1cc(C2=C(c3c[nH]c4ccccc34)C(=O)NC2=O)c2ccccc21 [Bis I]
LDL receptor expression [1]
  effect on SB202190-induced LDL receptor expression: has no effect

## Cn1c2ccccc2c2c3c(c4c5ccccc5n(CCC#N)c4c21)CNC3=O [Go6976]
LDL receptor expression [1]
  effect on SB202190-induced LDL receptor expression: has no effect

## C[C@]12CC[C@@H]3c4ccc(O)cc4C[C@@H](CCCCCCCCC[S+]([O-])CCCC(F)(F)C(F)(F)F)[C@H]3[C@@H]1CC[C@@H]2O (stereo partly shown) [ICI 182780]
p42/44^MAPK [2]
  stimulation of p42/44MAPK: stimulated p42/44^MAPK within minutes
p38^MAPK [3]
  effect on p38MAPK activation by anisomycin or IL-1β: no significant effects

## COc1cccc(-c2cc(=O)c3ccccc3o2)c1N [PD98059, 2-(2′-amino-3′-methoxyphenyl) oxanaphthalen-4-one]
p42/44^MAPK [4]
  effect on SB202190-induced p42/44MAPK phosphorylation/activation: inhibited
p38^MAPK [5]
  effect on p38MAPK activation in response to IL-1β or TNF: failed to block p38^MAPK activation
Other MAPKs
  effect on activity of other MAPKs: has no effect on activity of other MAPKs
LDL receptor expression [6]
  effect on SB202190-induced LDL receptor expression in HeLa cells: blocked SB202190-induced LDL receptor expression
LDL receptor expression [1]
  effect on SB202190-induced LDL receptor expression: inhibited

## CCc1nc(-c2ccc(OC)cc2)[nH]c1-c1ccncc1 [SB202474]
LDL receptor expression [1]
  induction of LDL receptor expression (Northern blotting): did not induce LDL receptor expression

## C[S+]([O-])c1ccc(-c2nc(-c3ccc(F)cc3)c(-c3ccncc3)[nH]2)cc1 (stereo not shown) [SB203580, 4-(4-Fluorophenyl)-2-(4-methylsulfinylphenyl)-5-(4-pyridyl) 1H-imidazole]
[7]
  inhibition of p38MAPK α- and β-isoforms: selectively inhibit both p38^MAPK α- and β-isoforms
LDL receptor expression [1]
  most effective concentration for LDL receptor induction: 10 µM
  induction of LDL receptor expression (Northern blotting): also induced LDL receptor expression

## C[C@@H]1C[C@@H]([C@H](O)CC2CC(=O)NC(=O)C2)C(=O)[C@@H](C)C1 [cycloheximide]
LDL receptor expression [1]; cycloheximide 1, 2, 5 μg/ml for 1 h, then SB202190 (2.5 μM) 4 h
  effect of inhibition of translation on SB202190-induced LDL receptor expression: no effect on LDL receptor expression

## COc1ccc2c(c1)c(CC(=O)O)c(C)n2C(=O)c1ccc(Cl)cc1 [indomethacin]
LDL receptor expression [1]; 10 μM indomethacin
  effect on LDL receptor expression: did not significantly alter LDL receptor expression

## CN[C@@H]1C[C@H]2O[C@@](C)([C@@H]1OC)n1c3ccccc3c3c4c(c5c6ccccc6n2c5c31)C(=O)NC4 [staurosporine]
p42/44^MAPK [4]
  effect on SB202190-induced p42/44MAPK phosphorylation/activation: blocked
MEK-1/2
  effect on SB202190-induced MEK-1/2 activation: blocked
LDL receptor expression [1]
  effect on SB202190-induced LDL receptor expression: completely prevented

## calphostin C
LDL receptor expression [1]
  effect on SB202190-induced LDL receptor expression: has no effect
